This is an account of results in PubChem BioAssay AID1996.

The structures appear in SMILES notation. Converted amounts (≈) assume the structure as drawn.

For the data set the following is noted: buffer; pH 7.4; 200.0 µM.
With `Cc1cccc(NC(=S)N2CCC(O)CC2)c1C`, the kinetic solubility was 36.5 µg/mL (≈ 138 µM). In turn, `O=C(Cc1cccs1)NCCc1ccc(Cl)cc1` had a kinetic solubility of 40.5 µg/mL (≈ 145 µM). With `Cc1ccc(C)c(NC(=S)NCCc2c[nH]c3ccccc23)c1` the figure was 17.1 µg/mL (≈ 52.9 µM); with `CCN(CC)C(=O)COCc1cc(-c2ccc3c(c2)OCO3)on1`, > 49.9 µg/mL. With `O=[N+]([O-])c1ccc(CN2CCN(c3ccc([N+](=O)[O-])cc3)CC2)cc1` the figure was 2 µg/mL (≈ 5.84 µM); with `O=C(C#Cc1ccccc1)Nc1ccccc1F`, 25.4 µg/mL (≈ 106 µM); with `Cc1csc(NC(=O)c2ccc(C)s2)n1`, 25.9 µg/mL (≈ 109 µM).

As to `Clc1ccc2ccc3cccnc3c2n1`, the kinetic solubility was > 32.2 µg/mL.

As to `C=CCC(O)(CC=C)C(C)N.Cl` (stereo not given), the kinetic solubility is > 28.8 µg/mL. With `CCC(=O)NN1CCN(c2ccncc2S(=O)(=O)N2CCCCC2)CC1` the figure was > 57.2 µg/mL; with `COc1cccc(OC)c1C(=O)NCCc1ccccc1`, > 42.8 µg/mL.

As to `COc1ccc(CCNC(=O)c2cnc(Cl)c(Cl)c2)cc1`, the solubility (kinetic) amounted to 2.4 µg/mL (≈ 7.38 µM). For `CC1CCc2sc3ncnc(N4CCN(CCO)CC4)c3c2C1` (stereo not given) the value was > 49.9 µg/mL; for `O=C(COC(=O)Cc1ccsc1)Nc1cccc(F)c1`, > 44 µg/mL. With `O=C(CN1CCCCCC1)Nc1ccc(S(=O)(=O)N2CCCCC2)cc1` the figure was 50.4 µg/mL (≈ 133 µM); with `CCCc1cc(=O)[nH]c(SCC(=O)Nc2ccc3ccccc3c2)n1`, 2.6 µg/mL (≈ 7.36 µM). For `C#CCOC(=O)Nc1cc(C)n(-c2ccccc2)n1` the value was > 38.3 µg/mL; for `O=C(CN1C(=O)c2ccc([N+](=O)[O-])cc2C1=O)NCc1ccco1`, > 49.4 µg/mL; for `Oc1ccc(Br)cc1CNc1ccccn1`, 3.4 µg/mL (≈ 12.2 µM). `COc1ccccc1C(=O)NCCC(=O)NCc1ccncc1`: the solubility (kinetic) is > 47 µg/mL. As to `S=C(NC1CC1)N1CCN(C(=S)NC2CC2)CC1`, the kinetic solubility is > 42.7 µg/mL.

Compound `CCn1c(/C=C/c2ccc(O)cc2)nc2ccccc2c1=O` displayed a solubility (kinetic) of 2.8 µg/mL (≈ 9.58 µM). In the case of `CC#CC[N+](C)(C)CCCCCC.[Cl-]`, the solubility (kinetic) was 27.8 µg/mL. For `COc1ccccc1C1NC(=O)CCC1[N+](=O)[O-]` (stereo not given) the value was > 37.5 µg/mL; for `CCOC(=O)N1CCc2c(sc3[nH]c(=S)[nH]c(=S)c23)C1`, 43.1 µg/mL (≈ 132 µM); for `CC(=O)NCCc1ccc(C(=O)COC(=O)C2CCCCC2)cc1`, 33.4 µg/mL (≈ 101 µM).

Turning to `CCn1c(=O)cc(N2CCN(C(=O)c3ccco3)CC2)[nH]c1=O`, the kinetic solubility is > 47.7 µg/mL. With `COc1cccc(NC(=S)N(CCN2CCCCC2)Cc2ccco2)c1` the figure was 47.3 µg/mL (≈ 127 µM). Take `N#CC1(c2ccccc2)CCC(=O)N1c1ccccc1` (stereo not given): the kinetic solubility is > 39.3 µg/mL. For `Cc1cc(C)c(NC(=O)CCCSc2nnc(N)s2)c(C)c1` the value was > 50.5 µg/mL; for `CCOC(=O)c1ccc(NC(=O)c2cc(=O)[nH]c3ccccc23)cc1`, < 0.4 µg/mL.

In turn, `COc1cccc(OCC(O)CNC(=O)c2oc3ccc(C)cc3c2C)c1` (stereo not given) showed a solubility (kinetic) of 20.2 µg/mL (≈ 54.7 µM). For `O=C(CN1CCOCC1)Nc1nc(-c2ccc(Cl)cc2)cs1` the value was > 50.7 µg/mL; for `COc1cc2c(cc1OC)CN(C1CCC(C)CC1)CC2` (stereo not given), 34.7 µg/mL (≈ 120 µM). With `CCC1CCCCN1Cc1nc(Cc2ccccc2Cl)no1` (stereo not given) the figure was 16.3 µg/mL (≈ 51 µM). In turn, `Cc1cccnc1NC(=O)Nc1cccc(Cl)c1` gave a kinetic solubility of 0.5 µg/mL (≈ 1.91 µM).

Take `Cc1ccc(NC(=O)CCN2CCC(Cc3ccccc3)CC2)cc1`: the kinetic solubility was found to be 22.6 µg/mL (≈ 67.2 µM). This solubility kinetic is about 45-fold higher than that of the compound before.

For the compound `COC(=O)c1sccc1-n1cccc1C(=O)C(=O)N1CCOCC1`, the kinetic solubility was found to be 46.3 µg/mL (≈ 133 µM).

In the case of `CC(NCC(=O)Nc1ccccc1C(=O)NC1CC1)c1cccs1` (stereo not given), the solubility (kinetic) was > 51.5 µg/mL.

`CCOc1ccccc1C(=O)NC1CCN(Cc2ccccc2)CC1` had a solubility (kinetic) of 36.8 µg/mL (≈ 109 µM). For `CC1(C)Nc2ccccc2N(Cc2ccc([N+](=O)[O-])cc2)C1=O`, the solubility (kinetic) is > 46.7 µg/mL. With `CC(C)C(C)(C#N)NC(=O)CN1C(=O)NC2(CCCc3ccccc32)C1=O` (stereo not given) the figure was > 55.3 µg/mL. With `Cc1cc(SCC(=O)NC2CCCCC2)nc2ccccc12` the figure was 1.2 µg/mL (≈ 3.82 µM); with `Cn1c(-c2ccccc2[N+](=O)[O-])[n+](C)c2ccccc21.[Cl-]`, 42.9 µg/mL; with `Cc1ccc(-c2noc(N=O)c2NO)cc1`, 31.5 µg/mL (≈ 144 µM). For `CC1CCN(C(=O)c2ccc3ccccc3c2)CC1` the value was 23.8 µg/mL (≈ 93.9 µM); for `S=C(Nc1ccccc1)Nc1ccccc1-n1cccc1`, 34.2 µg/mL (≈ 117 µM).

For `Cc1ccc(SCCc2cc[n+](CC(=O)c3ccccc3)cc2)cc1`, the kinetic solubility amounted to 50.8 µg/mL. For `O=C(Nc1nc2c(Cl)cccc2s1)C1CC1` the value was 1.3 µg/mL (≈ 5.14 µM).

Turning to `Cc1ccc(CSCC(=O)Nc2ccccc2C(=O)O)cc1`, the solubility (kinetic) is > 47.3 µg/mL. For `O=C1Nc2ccccc2C1Cc1ccccn1` (stereo not given) the value was > 33.6 µg/mL; for `C=CCN1C(=O)C(=O)N(CC(=O)NCC(=O)Nc2ccc(F)c(F)c2F)C1=O`, > 59.7 µg/mL; for `O=C(NC1CCN(C(=O)Nc2cccc(F)c2)CC1)c1ccco1`, > 49.7 µg/mL. Turning to `CC1=C(Nc2ccc(C(=O)O)cc2)C(=O)c2ccccc2C1=O`, the kinetic solubility was > 46.1 µg/mL. In the case of `NC1=NC(=O)/C(=C\c2ccco2)S1`, the kinetic solubility was > 29.1 µg/mL. With `N/C(=N\OC(=O)c1ccc(Cl)c([N+](=O)[O-])c1)c1ccccc1` the figure was 7.9 µg/mL (≈ 24.7 µM); with `Cc1ccccc1C(=O)Nc1cccc(NC(=O)c2ccc(F)cc2)c1`, 1.8 µg/mL (≈ 5.17 µM); with `CC1(C)C2C(Cl)(Cl)C2(C)c2ccccc2N1C=O` (stereo not given), 38.3 µg/mL (≈ 135 µM). For `CCc1c(-c2ccccc2)nc2sc3c(c2c1N)CCCC3` the value was < 0.3 µg/mL. `COc1cccc(CNC(=O)c2ccc(C3SCCS3)cc2)c1` returned a solubility (kinetic) of 10.5 µg/mL (≈ 30.4 µM).

For `Cc1cc(=O)oc2cc(OC(C)C(=O)NC3CCCC3)ccc12` (stereo not given), the solubility (kinetic) came to 44.6 µg/mL (≈ 141 µM). For the compound `O=C1c2ccccc2NC(c2cccc([N+](=O)[O-])c2)N1O` (stereo not given), the solubility (kinetic) is > 42.8 µg/mL.

For the compound `Cc1ccc(NS(=O)(=O)c2ccc(Cl)nc2)c(C)c1`, the solubility (kinetic) was > 44.5 µg/mL. With `CC(=O)c1cn(C(=O)c2ccc(Cl)cc2)c2ccccc12` the figure was 3.6 µg/mL (≈ 12.1 µM); with `COc1cc(CN2CCCCCC2)cc(OC)c1OC.O=C(O)C(=O)O`, > 55.4 µg/mL; with `CCCCN1CNC(=S)N(CCc2ccc(OCC)c(OCC)c2)C1`, 12.6 µg/mL (≈ 34.5 µM). For the compound `CC(C)C(=O)N1CCC(Cc2ccccc2)CC1`, the solubility (kinetic) worked out at 33.5 µg/mL (≈ 137 µM). Compared with the last compound, the solubility kinetic is about 2.7-fold higher.

In the case of `Cc1ccc(C(NC(=O)Nc2ccccn2)C(Cl)(Cl)Cl)cc1F` (stereo not given), the solubility (kinetic) was < 0.3 µg/mL. For `CCn1cnc2cc([N+](=O)[O-])ccc21` the value was > 28.7 µg/mL; for `Cn1ccnc1SCC(=O)Nc1cccc(C#N)c1`, > 40.8 µg/mL; for `Cc1ccsc1C(=O)OCC(=O)NC1CCCC1`, > 40.1 µg/mL.

In the case of `CCN(C(=O)CN1CCCCCC1)c1c(N)n(Cc2ccccc2)c(=O)[nH]c1=O`, the solubility (kinetic) was > 59.9 µg/mL. For `COCCNC(=S)Nc1ccccc1[N+](=O)[O-]` the value was > 38.3 µg/mL; for `O=C(CSc1nc2ccccc2s1)Nc1ccc(C(=O)O)cc1`, > 51.7 µg/mL; for `Nc1ncnc(Nc2ccc(F)c(Cl)c2)n1`, 8.4 µg/mL (≈ 35.1 µM). Consider `O=C(O)C1CCN(C(=O)CCc2ccccc2)CC1`, for which the solubility (kinetic) was > 39.2 µg/mL.

With `COc1ccc(CN2CCN(CC3CC3)CC2CCO)cc1C` (stereo not given), the kinetic solubility is > 47.8 µg/mL. For `Cn1c(C(=O)N[C@@H](C(=O)O)c2ccccc2)cc2cc(F)ccc21` the value was 45.4 µg/mL (≈ 139 µM).

`O=C1OC(c2ccc(Br)cc2)=N/C1=C\c1ccco1`: the solubility (kinetic) stood at 2.4 µg/mL (≈ 7.54 µM). For `O=C(NCCCCNC(=O)c1ccccc1F)c1ccccc1F` the value was > 49.9 µg/mL.

With `Cc1ccc(SCCC(=O)NCc2ccccn2)cc1`, the solubility (kinetic) was > 43 µg/mL.

The compound `CNC(=S)c1cc(C(C)(C)C)c(O)c(C(C)(C)C)c1` registered a solubility (kinetic) of 13.4 µg/mL (≈ 48 µM).

`CC1CCN(C(=O)c2ccc(NC(=O)c3cccs3)cc2)CC1` showed a kinetic solubility of 44.7 µg/mL (≈ 136 µM).

As to `Cc1csc2nc(NC(=O)c3ccccc3)sc(=O)c12`, the solubility (kinetic) was found to be 0.9 µg/mL (≈ 2.98 µM). For `COc1cccc(OC)c1C(=O)Nc1sc2c(c1C#N)CCC2` the value was 0.7 µg/mL (≈ 2.13 µM); for `Cc1ccc(Cn2c(=O)n(C)c(=O)c3sccc32)cc1`, 1.2 µg/mL (≈ 4.19 µM); for `Cl.O=C(Nc1ncccc1Cl)c1ccc2c(c1)OCCO2`, 37 µg/mL. On to `CCOc1ccc(CNC(=O)Nc2ccccc2)cc1`, for which the solubility (kinetic) was found to be 3.8 µg/mL (≈ 14.1 µM).

In the case of `CC(=O)Oc1ccc2occ(/C=N/c3cc(=O)[nH]c(=S)[nH]3)c(=O)c2c1`, the kinetic solubility is > 53.6 µg/mL. For `COc1ccc(NC(=S)NCCCN2CCCC2)cc1` the value was > 44 µg/mL; for `CCc1ccc(C(=O)Nc2cc(C)ccc2F)s1`, 16.6 µg/mL (≈ 63 µM).

Turning to `O=C(NC1CCCCC1)c1cc(S(=O)(=O)N2CCN(c3ccccc3)CC2)ccc1Cl`, the solubility (kinetic) was determined as 1.5 µg/mL (≈ 3.25 µM). For `CC(=O)c1ccc(NC(=O)CN2c3cccc4cccc(c34)S2(=O)=O)cc1` the value was 7.2 µg/mL (≈ 18.9 µM); for `O=C(Nc1cccc(Cl)c1)Nc1ccccc1C(=O)O`, > 43.6 µg/mL. With `Cc1nc2ccccc2c(=O)n1-c1ccc(Br)cn1` the figure was > 47.4 µg/mL; with `COc1ccc(NC(=O)c2csc(C)c2)cc1OC`, > 41.6 µg/mL. As to `Cc1nc([N+](=O)[O-])c(C(=O)OCc2ccccc2F)n1C`, the kinetic solubility stood at 41.8 µg/mL (≈ 143 µM). For `CC(C)(C)c1ccc(O)c(N=Cc2c(O)ccc3ccccc23)c1` the value was < 0.7 µg/mL.

`CCOc1ccccc1N1CC(C(=O)N2CCOCC2)CC1=O` (stereo not given): the solubility (kinetic) is 44.6 µg/mL (≈ 140 µM). With `CC(OC(=O)/C=C/c1cccs1)C(=O)NC1CCCCC1C` (stereo not given) the figure was 4.9 µg/mL (≈ 15.2 µM); with `Cc1cc(C(=O)NC2CCCCCCC2)ccc1[N+](=O)[O-]`, 1.1 µg/mL (≈ 3.79 µM). With `C/C(=N\O)C(=O)Nc1ccccc1` the figure was > 26.7 µg/mL; with `Cc1nc(Cl)sc1C(=O)Nc1cc(F)cc(F)c1`, 20.7 µg/mL (≈ 71.7 µM); with `COc1ccccc1CNc1ncnc2sccc12`, 34.5 µg/mL (≈ 127 µM).

In the case of `COc1ccc(CN2CCc3c([nH]c4ccccc34)C2)c(OC)c1C`, the kinetic solubility was 35.2 µg/mL (≈ 105 µM).
